Measured values: US11904021B2, “Dual targeting and therapeutic nanoparticle for treating renal fibrosis” (The Chinese University of Hong Kong, priority 2020, dated 2024)
Values joined by “and” are separate entries in the source; they are usually repeats but may differ in a detail not shown here. Equal entries are not always repeated. “Also recorded” adds a separate entry of the source.

Experiments:
UUO mice = experiment: In vivo toxicity test (organ histology, blood biochemistry, hematology); design: species or system Balb/c mice; settings: 7 days post-injection, efficacy dose
Method: Liver, heart, and spleen samples were fixed in 10% buffered formalin for 48 h and then stored in PBS at 4° C. Paraffin-embedded tissue sections of 4 μm thick were stained with hematoxylin and eosin for the tissue morphology by light microscopy. Blood, collected via an intracardiac puncture, was stored in a plain tube for biochemistry tests and in EDTA-coated tubes (Becton Dickinson) for hematology analysis. The blood samples were kept on ice and later sent to PathLab (Hong Kong) for analysis on the same day.

[1] = tested on: α-smooth muscle actin (a-SMA); experiment: Anti-fibrosis efficacy: IHC of α-SMA in UUO kidney; assay type: in vivo, Balb/c mice; settings: Day 14 post-UUO surgery
Method: (§1) Mouse kidney tissue—Two slides from each kidney were selected for each set of stains such that two section-containing slides were at least 200 μm away from each other. IHC staining was performed on paraffin sections using the microwave-based antigen retrieval technique^32. Tissue sections were deparaffinized and rehydrated to water. After placing the slides in citrate buffer (10 mM citric acid, pH 6.0), the slides were heated in the microwave oven for 3 min under high power (˜95-100° C.) and for 20 more min under low power. After cooling the slides in the heated solution for 30 min, they were rinsed in distilled water twice and in PBS for 5 min. Next, the slides were blocked with 2.5% normal horse serum (Vector Laboratories) for 2 h and incubated with 60 μL of primary antibodies [1 μg/mL for type I collagen (1310-01; Southern BioTech), 0.048 μg/mL for α-SMA (ab150301; Abcam)) 0.625 μg/mL for folate receptor (ab67422; Abcam), 1.25 μg/mL for CD3 (ab16669; Abcam), 1.25 μg/mL for Wnt5b (ab93134; Abcam), and pre-diluted β-catenin (ab15180; Abcam)] at 4° C. overnight. […]
(§2) The major measurable outcome was the expression level of collagen I, as quantified by the percentage area of IHC staining in the kidney sections. […]

[2] = tested on: type I collagen (gene ID: Col1a1); experiment: Transcriptomic analysis (RNA-seq) of UUO kidneys; assay type: in vivo, Balb/c mice; settings: UUO kidney, 48 h post-injection, individual replicates 1-3
Method: UUO mice were i.v. injected with Au3-PEG500-FA NPs (i.e., […]) or free (i.e., 0.12 mg-FA/kg-mouse) on Day 7 after UUO surgery, at the same dosage used for the efficacy studies. An untreated group of UUO mice was also included as control. On Day 9 after UUO surgery (i.e., 48 h post-injection), the mice were sacrificed and the UUO kidneys were harvested. After cutting the UUO kidneys in half using a scalpel, one set of the halved kidneys was fixed in buffered formalin while the other set was snap frozen in liquid nitrogen and stored at −80° C. The formalin-fixed samples were dehydrated as mentioned above and embedded in paraffin blocks to generate tissue sections for validating the RNA-seq data. The frozen samples were sent to Beijing Genomics Institute (BGI) for RNA extraction, RNA library construction, and bioinformatic analysis. A total of 9 samples were sequenced using the BGISEQ platform, with ˜4.57 Gb generated per sample. The average mapping ratio with reference genome is 94.33%. Differential expressed genes (DEGs) detection, gene ontology analysis of DEG, and other analysis based on gene expression were performed by BGI. Further analysis of the DEGs was performed by filtering the list of DEGs with a FPKM threshold of 2 for at least 6 out of the 9 UUO samples tested.
Animals were sacrificed on Day 9. […]

CD3+ T cells = experiment: Anti-fibrosis efficacy: IHC of CD3+ T cell infiltration in UUO kidney; assay type: in vivo, Balb/c mice; settings: Day 14 post-UUO surgery
Method: as §1, §2

[3] = neutral conditions, literature ref 45; cited from earlier work
type I collagen = experiment: Anti-fibrosis efficacy: IHC of type I collagen in UUO kidney; assay type: in vivo, Balb/c mice; settings: for fractional area of type I collagen in UUO kidney: Day 14 post-UUO surgery (7 days post injection)
Method: Mouse kidney tissue—Two slides from each kidney were selected for each set of stains such that two section-containing slides were at least 200 μm away from each other. IHC staining was performed on paraffin sections using the microwave-based antigen retrieval technique^32. Tissue sections were deparaffinized and rehydrated to water. After placing the slides in citrate buffer (10 mM citric acid, pH 6.0), the slides were heated in the microwave oven for 3 min under high power (˜95-100° C.) and for 20 more min under low power. After cooling the slides in the heated solution for 30 min, they were rinsed in distilled water twice and in PBS for 5 min. Next, the slides were blocked with 2.5% normal horse serum (Vector Laboratories) for 2 h and incubated with 60 μL of primary antibodies [1 μg/mL for type I collagen (1310-01; Southern BioTech), 0.048 μg/mL for α-SMA (ab150301; Abcam)) 0.625 μg/mL for folate receptor (ab67422; Abcam), 1.25 μg/mL for CD3 (ab16669; Abcam), 1.25 μg/mL for Wnt5b (ab93134; Abcam), and pre-diluted β-catenin (ab15180; Abcam)] at 4° C. overnight. Slides were then washed in PBS and treated with 3% H2O2 (Merck Millipore) for 30 min, rinsed again, and incubated with ˜50 μL of secondary antibodies (ImmPRESS HRP Polymer detection Kit, Vector Laboratories) for 30 min. The sections were developed sequentially by using 3,3′-diaminobenzidine (DAB) enzyme substrate (ImmPACT™ DAB, Vector Laboratories) for 2 min. All slides were counter-stained with Mayer's hematoxylin for 3 min, washed in distilled water, dried in 90% ethanol, and mounted by using xylene-based mounting medium. Bright-field images were acquired using the Nikon Eclipse Ni (DS-Ri2) microscope.
FA was dissolved in sterile BioPerformance Certified DMSO (Sigma) and formulated in D5W prior to injection. The final concentration of DMSO was less than 1%. […]
as §2

[4] = tested on: UUO mice with established renal fibrosis; experiment: Efficacy study in UUO mice: kidney degeneration (gross appearance, histology, kidney weight, blood creatinine); assay type: in vivo, Balb/c mice; settings: treatment from Day 7, sacrifice Day 14 post-UUO surgery
Method: Mouse model of renal fibrosis was induced by the UUO surgery as previously described^12,29. Mice were anesthetized by an intraperitoneal injection of ketamine (100 mg/kg; Alfasan International B.V.) and xylazine (10 mg/kg; Alfasan International B.V.). The peritoneum was cut along the midline, and the left ureter was isolated and ligated twice by using a 5-0 suture (NingBo Cheng-He Microsurgical Instruments). The bowel was laid back and the peritoneum was closed with suture. The mice were placed under a heating lamp to maintain body temperature until they recovered from anesthesia. For analgesia, three injections of buprenorphine (Temgesic, 0.05 mg/kg) were given to the mice subcutaneously every 12 h after the surgery. To verify the development of fibrosis, the mice were sacrificed by cervical dislocation with anesthesia, and their kidneys were weighted (see FIG. 4) and processed for histological analysis (see FIGS. 5A-5C).
FA was dissolved in sterile BioPerformance Certified DMSO (Sigma) and formulated in D5W prior to injection. The final concentration of DMSO was less than 1%. Au3-PEG500-FA NPs formulated in D5W was injected i.v. at a dose of 0.12 mg-FA/kg-mouse (or equivalently 2.5 mg-Au/kg-mouse). […]
as §2

Compound	histological examination of liver, heart, and spleen (UUO mice)	area with positive α-SMA in the UUO kidney [1] [%]	Expression level (FPKM) for type I collagen [2]	mean population of CD3+ T cells (CD3+ T cells) [cells/frame]	solubility in water [3]	type I collagen protein expression in UUO kidney versus saline group (type I collagen; 48 h post-injection (Day 9))	fractional area of type I collagen in UUO kidney (type I collagen) [%]	gross tissue degeneration of UUO kidney [4]
Nc1nc2ncc(CNc3ccc(C(=O)N[C@@H](CCC(=O)O)C(=O)O)cc3)nc2c(=O)[nH]1 [free FA, folic acid]	did not observe noticeable toxicity	10.7	185.4 FPKM and 80.71 FPKM and 18.57 FPKM	13	poorly soluble in water	lower type I collagen protein expression than the saline group	11.2	rescued the UUO kidney from tissue degeneration; also recorded: did not degenerate
C[C@H](CS)C(=O)N1CCC[C@H]1C(=O)O [Captopril]	did not observe noticeable toxicity	12.5					13.5	
